Data as given in US20050214387A1, “Low-dose potassium supplementation for the prevention and treatment of hypertension” (priority 2002, published 2005).
Where “and” joins values, the source holds several entries; their conditions need not be identical. Equal entries are not always repeated.

Experiments:
[1] = tested on: apparently healthy volunteers; assay: Double-blind placebo-controlled low-dose potassium trial: blood pressure (MAP, SBP, DBP); assay type: in vivo, human; details: for DBP Week 3 − Week 0 mean difference / MAP Week 3 − Week 0 mean difference / SBP Week 3 − Week 0 mean difference: change Week 0 to 3, n = 30, mean ± SEM; for DBP Week 6 − Week 0 mean difference / MAP Week 6 − Week 0 mean difference / SBP Week 6 − Week 0 mean difference: change Week 0 to 6, n = 30, mean ± SEM
Method: A double-blind, placebo controlled trial on 59 volunteers, randomly assigned to receive 24 mmol/d of slow release potassium chloride (n=30) or a placebo (n=29) was conducted. Measures of BP, anthropometric characteristics and urine analysis for electrolytes were recorded during a one-week baseline period. Supplementation was for six weeks during which BP and changes in weight were assessed and a second 24-hour urine collection made. The primary outcome was the change in mean arterial pressure (MAP). Systolic (SBP) and diastolic (DBP) blood pressure were secondary outcomes.
The study took the form of a randomized double-blind, placebo-controlled trial with the aim of testing the effect of potassium supplementation on BP. […] The study consisted of a baseline period of one week during which blood pressure and body weight were measured at the beginning and end, and a 24-hour urine sample was collected to estimate electrolyte intake. During a six weeks intervention phase, BP and body weight were measured at three-week intervals, and a second 24-hour urine sample was collected during the final week. Potassium chloride was administered as one slow release tablet containing 8 mmol of potassium chloride (Slow-K Tablets 600 mg kindly supplied by Alliance Pharmaceuticals Ltd, Avonbridge House, Chippenham, Wiltshire SN15 2BB, UK) three times a day with meals. The placebo contained sorbitol and fructose.
Each BP measurement was performed following current recommendations (Beevers et al., ABC of hypertension, 4th Ed., London, BMJ Publishing Group, 2000). BP was assessed at the same time of day (within 30 minutes) for every appointment to avoid the influence of circadian variations in BP (Id.), at approximately the same heart rate, and by the same observer using the same instruments throughout the study for each measurement. The subjects were instructed not to smoke, eat or drink during the 30 minutes before each appointment They were also given verbal and written notice to avoid exercising 30 minutes before the appointment, to come to the appointment with an empty bladder and to maintain strictly their usual habits on the day of the appointment (coffee, tea, meals consumed at the same time of the day). BP measurements were performed after the subjects had rested quietly for at least five minutes in the seated position. Two different cuffs (35 cm and 42 cm) were used depending on the arm circumference. At each visit at least three readings for systolic (SBP) and diastolic (DBP) BP and heart rate were taken at two-minute intervals in the left arm using a semi-automated device employing the oscillometric method (Omron M5-I, Omron Healthcare Europe B.V., Hoofddorp, The Netherlands). The first readings of each assessment were ignored to avoid results affected by the defense reaction (Beevers et al., ABC of hypertension, 4th Ed., London, BMJ Publishing Group, 2000) and the last two readings were averaged and recorded. The readings were thereafter confirmed after a two-minute interval with a Hawksley random zero sphygmomanometer (Hawksley and Sons, Lancing, Sussex, UK) because automatic devices may be unsuitable for some individuals for which there is no obvious reason (Id.).
SBP was measured as the point of appearance of the Korotkoff sounds (Phase I) and DBP was measured as the point of complete disappearance of the Korotkoff sounds (Phase V) according to the guidelines given by the British Hypertension Society (Id). All recordings from the semi-automated device agreed well with the random zero sphygmomanometer. Subjects with either SBP≧140 mm Hg or DBP level≧90 mm Hg were considered to be hypertensive.
Mean Arterial Pressure (MAP) was computed as MAP=(2 DBP+SBP)/3 (Vander et al., Human Physiology, The Mechanism of Body Function, 8th Ed., McGraw-Hill, New York, 2000, pp. 407-16 and 626-34, and Wilson et al., Hypertension, 1999, 34, 181-6). […]

[2] = tested on: hypertensive patients; details: 18 hypertensive patients, daily supplement of 48 mmol; cited from earlier work
[3] = tested on: apparently healthy volunteers; assay: Low-dose potassium trial: compliance and side effects; assay type: in vivo, human; details: one person receiving potassium
Method: The patients and the investigator were unaware of the type of supplement being given, other than that it was a nutrient. The placebo and potassium chloride pills were provided in identical containers. The adherence of the volunteers to the treatment was assessed at each visit by questioning, and by counting the pills returned.
The baseline blood pressure used for the statistical analysis was the average of the measurements taken during the first week period. For Interval level variables (e.g. BP), differences between groups were tested using the Two-Sample t test while differences within each group were tested with the Paired t test. For Ordinal level variables (e.g. compliance) these tests were performed using the Mann-Whitney Test and the Wilcoxon Signed Rank Test for comparisons between and within the two groups respectively. The Chi-Squared Test was used to assess the significance of differences between the groups for Nominal level variables (e.g. gender).

[4] = 24 mmol/d slow release potassium chloride, n = 30, mean ± SEM
[5] = Week 0 to 6, listed as potassium
[6] = after six weeks of supplementation, versus placebo
[7] = within potassium group, listed as potassium
[8] = within potassium group, change Week 3 to 6, n = 30, mean ± SEM

With [Cl-].[K+] [Potassium, potassium chloride] the “DBP Week 3” value [1, 4] was 72.95 ± 2.08 mm Hg, the “DBP Week 6” value [1, 4] was 71.47 ± 1.90 mm Hg and the “MAP Week 3” value [1, 4] was 87.67 ± 2.20 mm Hg. The “MAP Week 6” value [1, 4] was 84.97 ± 2.06 mm Hg, the “SBP Week 3” value [1, 4] was 117.17 ± 2.71 mm Hg and the “SBP Week 6” value [1, 4] was 111.93 ± 2.52 mm Hg. The “DBP Potassium − placebo Mean Difference (95% CI)” value ([1]; Week 0 to 3) was −4.11 (−6.09, −2.13)^4 mm Hg, the “MAP Potassium − placebo Mean Difference (95% CI)” value ([1]; Week 0 to 3) was −3.34 (−5.22, −1.47)^3 mm Hg and the “SBP Potassium − placebo Mean Difference (95% CI)” value ([1]; Week 0 to 3) was −1.28 (−4.21, 1.65) mm Hg. The “DBP Potassium − placebo Mean Difference (95% CI)” value ([1]; Week 0 to 6) was −6.46 (−8.74, −4.19)^4 mm Hg, the “MAP Potassium − placebo Mean Difference (95% CI)” value ([1]; Week 0 to 6) was −7.01 (−9.12, −4.89)^4 mm Hg and the “SBP Potassium − placebo Mean Difference (95% CI)” value ([1]; Week 0 to 6) was −7.60 (−10.46, −4.73)^4 mm Hg. For the same compound, the “DBP Potassium − placebo Mean Difference (95% CI)” value [1, 5] was “marked and significant decrease”, the “MAP Potassium − placebo Mean Difference (95% CI)” value [1, 5] was “marked and significant decrease” and the “SBP Potassium − placebo Mean Difference (95% CI)” value [1, 5] was “marked and significant decrease”. The “DBP Potassium − placebo Mean Difference (95% CI)” value ([1]; Week 3 to 6) was −2.35 (−4.70, −0.00)^5 mm Hg, the “MAP Potassium − placebo Mean Difference (95% CI)” value ([1]; Week 3 to 6) was −3.66 (−5.84, −1.49)^3 mm Hg and the “SBP Potassium − placebo Mean Difference (95% CI)” value ([1]; Week 3 to 6) was −6.32 (−8.84, −3.79)^4 mm Hg. For the same compound, the “reduction in DBP” value [1, 6] was 6.46 mm Hg, the “reduction in MAP” value [1, 6] was 7.01 mm Hg and the “reduction in SBP” value [1, 6] was 7.60 mm Hg. The “DBP Week 3 − Week 0 mean difference” value ([1]; within potassium group) was −2.53 ± 0.73^6 mm Hg and −2.53 ± 0.73 mm Hg, the “MAP Week 3 − Week 0 mean difference” value ([1]; within potassium group) was −2.21 ± 0.72^3 mm Hg and −2.21 ± 0.72^2 mm Hg and the “SBP Week 3 − Week 0 mean difference” value ([1]; within potassium group) was −0.98 ± 1.20 mm Hg. The “DBP Week 3 − Week 0 mean difference” value [1, 7] was “significant decrease”, the “MAP Week 3 − Week 0 mean difference” value [1, 7] was “significant decrease” and the “SBP Week 3 − Week 0 mean difference” value [1, 7] was “not significantly reduced”. For the same compound, the “DBP Week 6 − Week 0 mean difference” value ([1]; within potassium group) was −4.02 ± 0.87^5 mm Hg and −4.02 ± 0.87 mm Hg, the “MAP Week 6 − Week 0 mean difference” value ([1]; within potassium group) was −4.91 ± 0.80^5 mm Hg and −4.91 ± 0.79 mm Hg and the “SBP Week 6 − Week 0 mean difference” value ([1]; within potassium group) was −6.22 ± 1.07^5 mm Hg and −6.22 ± 1.10 mm Hg. For the same compound, the “DBP Week 6 − Week 0 mean difference” value [1, 7] was “decreased significantly”, the “MAP Week 6 − Week 0 mean difference” value [1, 7] was “decreased significantly” and the “SBP Week 6 − Week 0 mean difference” value [1, 7] was “decreased significantly”. The “DBP Week 6 − Week 3 mean difference” value [1, 8] was −1.48 ± 0.98 mm Hg and −1.48 ± 0.97 mm Hg, the “MAP Week 6 − Week 3 mean difference” value [1, 8] was −2.70 ± 0.91^4 mm Hg and −2.70 ± 0.91 mm Hg and the “SBP Week 6 − Week 3 mean difference” value [1, 8] was −5.23 ± 1.03^5 mm Hg and −5.23 ± 1.00 mm Hg. For the same compound, the “SBP Week 6 − Week 3 mean difference” value ([1]; within potassium group, change Week 3 to 6, n = 30, mean ± SEM, listed as potassium) was “decreased significantly”, the “effect on BP” value [2] was “lower BP” and the side effects reported [3] was “increase in appetite”.
